Read-outs that look alike come from different tables or passages of the source.
Molecular target: T1, DCAF1 WD40 domain (residues 1077-1390) (Homo sapiens, UniProt Q9Y4B6)
T1 construct: DCAF1 WD40 domain (residues 1077-1390)
Experiment: DCAF1 binding assay by SPR (Biacore 8K+), DCAF1-3 KD
Conditions: 25 °C

T1 sequence (Q9Y4B6 1077-1390): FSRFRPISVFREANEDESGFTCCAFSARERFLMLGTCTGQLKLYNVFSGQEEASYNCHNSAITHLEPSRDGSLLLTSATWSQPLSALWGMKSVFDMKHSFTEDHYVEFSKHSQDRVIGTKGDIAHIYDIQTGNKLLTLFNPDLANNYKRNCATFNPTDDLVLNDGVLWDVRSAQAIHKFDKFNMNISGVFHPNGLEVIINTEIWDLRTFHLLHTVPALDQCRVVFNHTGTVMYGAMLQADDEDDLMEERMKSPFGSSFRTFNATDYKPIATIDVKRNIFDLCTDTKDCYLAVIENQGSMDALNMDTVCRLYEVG

| Structure (SMILES) | Kd (read-out: DCAF1-3 SPR (KD)) [µM] | Kd (DCAF1-3 SPR (KD)) [µM] |
| --- | --- | --- |
| O=CNc1ccc(N2CCC[C@H]3[C@@H]2CCN3c2cc(N3CCCCC3)ccn2)cc1F [I-762] | > 200 |  |
| Oc1ccccc1N1CCC[C@@H](Nc2cc(N3CCOCC3)ncn2)C1 [I-16] | > 200 |  |
| c1cc(N2CCC[C@@H](Nc3cc(N4CCOCC4)ncn3)C2)c2cccnc2c1 [I-393] | > 200 |  |
| NC(=O)C[C@H](NC(=O)c1cc(=O)[nH]cc1-c1ccccc1F)c1cccc(Cl)c1 [I-215] | > 200 |  |
| c1cc(N2CCC[C@@H](Nc3nccc(N4CCOCC4)n3)C2)c2cnccc2c1 [I-31] | > 200 |  |
| CCCCN(c1nccc(N2CCOCC2)n1)[C@@H]1CCCN(c2cccc(F)c2)C1 [I-43] |  | > 200 |
| c1ccc2c(N3CCC[C@@H](Nc4cc(N5CCOCC5)ncn4)C3)cncc2c1 [I-391] | > 200 |  |
| c1ccc2c(N3CCC[C@@H](n4ccc(N5CCOCC5)c5ccnc4-5)C3)nccc2c1 [I-367] | > 200 |  |
| NC(=O)C[C@@]1(c2cccc(Cl)c2)CN=C(c2c[nH]nc2-c2ccccc2F)N1 [I-191] | > 200 |  |
| CS(=O)(=O)N(c1cc(N2CCOCC2)ccn1)[C@@H]1CCCN(c2cccc(F)c2)C1 [I-304] | > 200 |  |
| O=C(CC1CC[C@@H](Nc2cc(N3CCOCC3)ccn2)CN1c1cccc(F)c1)Nc1cccc(Cl)c1 (some centres unmarked) [I-144] | > 200 |  |
| Cn1ncc(C(=O)N[C@@H](CC(N)=O)c2cccc(Cl)c2)c1-c1ccccc1F [I-172] | > 200 |  |
| NC(=O)C[C@H](NC(=O)c1c[nH]nc1-c1cc(=O)[nH]cn1)c1cccc(Cl)c1 [I-238] | > 200 |  |
| NC(=O)C[C@@]1(NC(=O)c2c[nH]nc2-c2ccccc2F)CCc2c(Cl)cccc21 [I-205] | > 200 |  |
| CCN(c1nccc(N2CCOCC2)n1)[C@@H]1CCCN(c2cccc(F)c2)C1 [I-42] | > 200 |  |
| NC(=O)C[C@H](NC(=O)c1c[nH]nc1-c1ccccn1)c1cccc(Cl)c1 [I-202] | > 200 |  |
| Fc1cccc(N2CCC[C@@H](Nc3cc([C@H]4CCCCN4)ccn3)C2)c1 [I-126] | > 200 |  |
| NCCCCCCCCCCCCCCCCCCCCC1CCN(c2ccnc(N3CC[C@@H]4[C@H]3CCCN4c3cccc(F)c3)c2)CC1 [I-745] | > 200 |  |

| Structure (SMILES) | Kd (read-out: DCAF1-3 SPR (KD)) [µM] | Kd (DCAF1-3 SPR (KD)) [µM] |
| --- | --- | --- |
| C[C@H](CC(N)=O)NC(=O)c1cn[nH]c1-c1ccccc1F [I-132] | > 200 |  |
| C=CC(=O)n1ccc(-c2n[nH]cc2C(=O)N[C@@H](CC(N)=O)c2cccc(Cl)c2)n1 [I-468] | > 200 |  |
| O=C1C[C@@H]([C@@H](NC(=O)c2cn[nH]c2-c2ccccc2F)c2cccc(Cl)c2)CN1 [I-560] | > 200 |  |
| CCCCN1CCN(c2cc(N[C@@H]3CCCN(c4cccc(F)c4)C3)ncn2)CC1 [I-377] | > 200 |  |
| C[C@@H](NC(=O)c1cn[nH]c1-c1c(F)cccc1F)c1ncc[nH]1 [I-839] | > 200 |  |
| Fc1cccc(N2CCC[C@@H](Nc3cc([C@@H]4CCCNC4)ccn3)C2)c1 [I-109] | > 200 |  |
| Fc1cccc(N2CCC[C@@H](Nc3cc(N4CCCCC4)ncn3)C2)c1 [I-379] | > 200 |  |
| C=C1CCCN(c2ccnc(N[C@@H]3CCCN(c4cccc(F)c4)C3)c2)C1=O [I-461] | > 200 |  |
| C=CC(=O)N1CC[C@H]1C(=O)N1CCN(c2ccnc(N[C@@H]3CCCN(c4cccc(F)c4)C3)c2)CC1 [I-479] | > 200 |  |
| NC(=O)C[C@H](NC(=O)c1c[nH]nc1-c1ccccc1O)c1cccc(Cl)c1 [I-229] | > 200 |  |
| Fc1cccc(N2CCC[C@@H](Nc3cc(N4CCNCC4)ncn3)C2)c1 [I-373] | > 200 |  |
| Fc1cccc(N2CCC[C@@H](Sc3cc(N4CCOCC4)ccn3)C2)c1 [I-113] | > 200 |  |
| CCCn1cc(N2CCC[C@@H](Nc3cc(N4CCOCC4)ccn3)C2)cn1 [I-694] | > 200 |  |
| c1cnc2c(N3CCC[C@@H](Nc4cc(N5CCOCC5)ccn4)C3)cnn2c1 [I-417] | > 200 |  |
| Fc1cccc(N2CCC[C@H](Cc3cc(N4CCOCC4)ccn3)C2)c1 [I-98] | > 200 |  |
| c1cc2cc(N3CCC[C@@H](Nc4nccc(N5CCOCC5)n4)C3)ccc2cn1 [I-33] | > 200 |  |
| c1ccc2c(N3CCC[C@@H](Nc4cc(N5CCOCC5)ncn4)C3)ccnc2c1 [I-392] | > 200 |  |
| Cc1sc2c(c1C)C(c1ccc(Cl)cc1)=N[C@@H](CC(=O)NCCOCCOCCOCCOCCOCCOCCn1ncc(C(=O)N[C@@H](CC(N)=O)c3cccc(Cl)c3)c1-c1ccccc1F)c1nnc(C)n1-2 [I-492] | > 200 |  |

More lines, now with the values ahead:

| Kd (read-out: DCAF1-3 SPR (KD)) [µM] | Kd (DCAF1-3 SPR (KD)) [µM] | Structure (SMILES) |
| --- | --- | --- |
| > 200 |  | Fc1cccc(N2CCC3CCCc4ncc(N5CCOCC5)cc4N[C@H]3C2)c1 (some centres unmarked) [I-227] |
| 10 to 100 |  | OC[C@H]1CC[C@@H](Nc2cc(N3CCCCC3)ccn2)CN1c1cccc(F)c1 [I-1008] |
| > 200 |  | Fc1cccc(N2CCC[C@@H](n3cnc4c(N5CCOCC5)ccnc43)C2)c1 [I-50] |
| 10 to 100 |  | COCCN1CCC(c2ccnc(N[C@@H]3CCCN(c4cccc(F)c4)C3)c2)CC1 [I-99] |
| < 10 |  | COCCOCCOCCC(c1cc(N2CC3CCC(C3)C2)ccn1)[C@@H]1CCCN(c2cccc(F)c2)C1 (some centres unmarked) [I-615] |
| 10 to 100 |  | C[C@H](C(N)=O)[C@H](NC(=O)c1c[nH]nc1-c1ccccc1F)c1cccc(Cl)c1 [I-147] |
| > 200 |  | NC(=O)C[C@H](NC(=O)CCc1nc2c(F)cccc2[nH]1)c1cccc(Cl)c1 [I-441] |
| < 10 |  | Cc1c(F)ccc(F)c1-c1c(C(=O)N[C@@H](CC(N)=O)c2cccc(Cl)c2)c[nH]c1C(=O)c1cccc(O)c1 [I-792] |
| 10 to 100 |  | Fc1cccc(N2CCC[C@H]3[C@@H]2CCN3c2cc(N3CC4CCC(C4)C3)ccn2)c1 [I-605] |
| < 10 |  | NC(=O)C[C@H](NC(=O)c1c[nH]c(-c2ccc[nH]2)c1-c1ccccc1F)c1cccc(Cl)c1 [I-600] |
| 10 to 100 |  | c1cc(N2CCOCC2)cc(N[C@@H]2CCCN(c3ccc4c(N5CCNCC5)ccnc4c3)C2)n1 [I-858] |
| 10 to 100 |  | NC[C@H]1CC[C@H](Nc2cc(N3CCCCC3)ccn2)CN1c1cccc(F)c1 [I-1021] |
| < 10 |  | Cc1c(F)ccc(F)c1-c1[nH]ncc1C(=O)N[C@@H](c1cccc(Cl)c1)[C@H]1CCCS1(=O)=O [I-1000] |
| 10 to 100 |  | NC(=O)[C@H]1C[C@@H](Nc2cc(N3CCCCC3)ccn2)CN(c2cccc(F)c2)C1 [I-1032] |
| < 10 |  | Cc1c(F)ccc(F)c1-c1c(C(=O)N[C@@H](CC(N)=O)c2cccc(Cl)c2)cn(C)c1C(=O)c1ccc(OCCOCCOCCOCCOCCN)cc1 [I-1017] |
| < 10 |  | C=CC(=O)NC1CCC2(CC1)CCN(c1ccnc(N[C@@H]3CCCN(c4cccc(F)c4)C3)c1)CC2 [I-657] |
| < 10 |  | Cc1c(F)ccc(F)c1-c1c(C(=O)N[C@@H](CC(N)=O)c2cccc(Cl)c2)cn(C)c1C(=O)c1ccc(O)cc1 [I-1030] |
| 10 to 100 |  | NC(=O)CC(Cc1ccccc1)NC(=O)c1cn[nH]c1-c1cc(F)ccc1F (centres unmarked) [I-814] |
| 10 to 100 |  | CCNC(=O)C[C@H](NC(=O)c1cn[nH]c1-c1ccccc1F)c1cccc(Cl)c1 [I-83] |
| 10 to 100 |  | Oc1ccc(N2CCC[C@@H](Nc3cc(N4CCCCC4)ccn3)C2)cc1F [I-716] |
| < 10 |  | NC(=O)C[C@H](NC(=O)c1cn[nH]c1CC1CCCCC1)c1cccc(Cl)c1 [I-582] |
| 10 to 100 |  | CCCCCCC[C@H]1CCCN(c2ccnc(N3CC[C@H]4[C@@H]3CCCN4c3cccc(F)c3)c2)C1 [I-729] |
| < 10 |  | Cc1c(F)ccc(F)c1-c1c(C(=O)N[C@@H](CC(N)=O)c2cccc(Cl)c2)cn(C)c1C(=O)c1ccc(C#CCOC2CCNCC2)cc1 [I-1003] |
| 10 to 100 |  | Cc1sc2c(c1C)C(c1ccc(Cl)cc1)=N[C@@H](CC(=O)NCCOCCOCCOCCOCCOCCn1ncc(C(=O)N[C@@H](CC(N)=O)c3cccc(Cl)c3)c1-c1ccccc1F)c1nnc(C)n1-2 [I-488] |

| Kd (read-out: DCAF1-3 SPR (KD)) [µM] | Kd (DCAF1-3 SPR (KD)) [µM] | Structure (SMILES) |
| --- | --- | --- |
| 10 to 100 |  | Fc1cccc(N2CC[C@@H](Nc3cc(N4CCOCC4)ccn3)C2)c1 [I-198] |
| < 10 |  | Cc1cccc(F)c1-c1[nH]ncc1C(=O)N[C@H](CC(N)=O)c1cc(F)cc(Cl)c1 [I-749] |
| < 10 |  | Fc1cccc(N2CCCC(N3CCc4c(N5CCCCC5)ccnc43)C2)c1 (centres unmarked) [I-789] |
| 10 to 100 |  | NC(=O)C[C@H](NC(=O)c1c[nH]nc1-c1ccc2[nH]cnc2c1)c1cccc(Cl)c1 [I-356] |
| < 10 |  | Cc1c(F)ccc(F)c1-c1c(C(=O)N[C@@H](CC(=O)N2CC[C@H](O)C2)c2cccc(Cl)c2)cn(C)c1C#N [I-1004] |
| 10 to 100 |  | C=CC(=O)NCCCCC1CCN(c2ccnc(N[C@@H]3CCCN(c4cccc(F)c4)C3)c2)CC1 [I-756] |
| 10 to 100 |  | NC(=O)C[C@H](NC(=O)c1cn[nH]c1-c1cc(CCC(=O)O)ccc1F)c1cccc(Cl)c1 [I-284] |
| < 10 |  | C[C@H]1CCCCN1c1ccnc2c1CCN2C1CCCN(c2cccc(F)c2)C1 (some centres unmarked) [I-788] |
| 10 to 100 |  | c1cc(N2CCOCC2)cc(N[C@@H]2CCCN(c3ncnc4c3ncn4[C@@H]3CCCCO3)C2)n1 [I-684] |
| 10 to 100 |  | c1cc(C2CC2)cc(N2CCC[C@@H](Nc3cc(N4CCOCC4)ccn3)C2)c1 [I-526] |
| 10 to 100 |  | CC(C)n1cc(C(=O)N[C@@H](CC(N)=O)c2cccc(Cl)c2)c(-c2ccccc2F)n1 [I-138] |
| 10 to 100 |  | Cc1c(F)ccc(F)c1-c1[nH]ncc1C(=O)N[C@H](c1cccc(Cl)c1)C1CCCS1(=O)=O (some centres unmarked) [I-999] |
| 10 to 100 |  | O=C1Nc2cnc(N3CCCCC3)cc2NC12CCCN(c1cccc(F)c1)C2 (centres unmarked) [I-992] |
| 10 to 100 |  | NC(=O)[C@@H]1CC[C@H](Nc2cc(N3CCCCC3)ccn2)CN1c1cccc(F)c1 [I-1027] |
| 10 to 100 |  | Oc1ccc(N2CCC[C@@H](Nc3cncc(N4CCOCC4)c3)C2)cc1 [I-567] |
| 10 to 100 |  | C=CC(=O)NCC1CCCN(c2ccnc(N[C@@H]3CCCN(c4cccc(F)c4)C3)c2)C1 (some centres unmarked) [I-634] |
| 10 to 100 |  | Fc1cccc(N2CC[C@@H]3CN(c4cc(N5CCCCC5)ccn4)C[C@@H]32)c1 [I-667] |
| < 10 |  | NC(=O)C[C@H](NC(=O)c1cn[nH]c1-c1ccccc1F)c1ccc(Cl)cc1 [I-97] |
| 10 to 100 |  | C=CC(=O)NC1CCN(c2ccnc(N[C@@H]3CCCN(c4cccc(F)c4)C3)c2)CC1 [I-519] |
| 10 to 100 |  | C=CC(=O)Nc1ccnc(N[C@@H]2CCCN(c3cccc(F)c3)C2)c1 [I-447] |
| < 10 |  | CC(=O)NC1CCC2(CC1)CCN(c1ccnc(N3CC[C@@H]4[C@H]3CCCN4c3cccc(F)c3)c1)CC2 [I-1047] |
| < 10 |  | Fc1cccc(N2CCC[C@@H]3[C@H]2CCN3c2cc(N3CC4CC(C4)C3)ccn2)c1 [I-623] |
| 10 to 100 |  | Cc1ccc([C@H](CC(N)=O)NC(=O)c2cn[nH]c2-c2ccccc2F)cc1 [I-101] |

Reference: patent US20260373266A1, “PROTEIN DEGRADERS AND USES THEREOF” (KYMERA THERAPEUTICS, INC., priority 2022, published 2026)
